Source: patent US20060040884A1, “Antisense oligonucleotides directed to genes regulated by trapoxin-induced HDAC inhibition” (priority 2001, published 2006)
Values joined by “and” are separate entries in the source; they are usually repeats but may differ in a detail not shown here. Identical values can stand only once. Marks after values point to notes of the source that are not given here. Square brackets hold non-standard residues; d marks the D form. Peptide text beside a SMILES is read from it. ξ: configuration not given here. Aoe(9ξ) = N[C@@H](CCCCCC(=O)C1CO1)C(=O)O; dPip = O=C(O)[C@H]1CCCCN1

Test system: H1299 cells
Assay: Microarray expression profiling of TPX- vs DMSO-treated H1299 cells (Affymetrix HU6800 and Incyte UniGem V arrays)
Assay type: cell-based, human
Conditions: 30 nM vs DMSO
Procedure: Cell Culture and Drug Treatments. […] H1299 cells at 60 to 80% confluence are treated with 30 nM TPX dissolved in dimethyl sulphoxide for a final concentration of 0.1% Me2SO in cell culture medium or 0.1% Me2SO for 0, 6, 12, and 18 h.
Incyte cDNA arrays. H1299 cells are treated with 30 nM TPX dissolved in Me2SO or Me2SO for 0, 6, 12 and 18 h. Final Me2SO concentrations were 0.1% in cell culture medium. Total RNA is extracted using TRIZOL reagent (Life Technologies, Rockville, Md.) and purified using RNAeasy reagents (Qiagen, Valencia Calif.). Poly (A)^+ RNA (mRNA) is prepared from total RNA using Oligotex columns (Qiagen, Valencia, Calif.) and the procedure is repeated twice to minimize contamination with ribosomal RNA. The mRNA concentrations are determined using RiboGreen RNA Quantitation kit (Molecular Probes, Eugene, Oreg.) and equal amounts of mRNA from each sample is used in labeling reactions that are performed by Synteni Division of Incyte Genomics, Inc. (Palo Alto, Calif.). Complementary DNAs are prepared by […] and labeled with Cy3-deoxyuridine triphosphate (Cy3) or Cy5-deoxyuridine triphosphate (Cy5) fluorescent nucleotides. cDNA samples from cells that are treated with Me2SO are labeled with Cy3 and the TPX-treated samples are labeled with Cy5. Replicates were labeled with reversed fluorescent labels to accommodate biases attributable to labeling. The Cy3 and Cy5 samples from each time point are combined and hybridized to UniGem […] arrays (Iyer, V. R., et al., (1999) Science 283, 83-87). This array contains cDNAs that represent approximately 7000 human genes.
Affymetrix oligonucleotide arrays. Total RNA and Poly (A)^+ RNA is isolated from TPX or Me2SO-treated H1299 cells essentially as it was for Incyte cDNA arrays. Total RNA is isolated from p21^waf1-10 cells that are grown in the presence or in the absence of tetracycline for 6, 12 and 48 h. 1st strand cDNA synthesis is performed using Superscript Choice System (Life Technologies) and a T7prFB-t30 primer, 5′-AAACGACGGCACA […]-t30-3′ (SEQ ID NO 1). Biotinylated complementary […] is made using the T7 Megascript system (Ambion, Austin, Tex.), substituting NTP labeling-mix containing biotinylated CTP and UTP. The labeled, purified cDNA is fragmented into <50 bp pieces at 95° C. in MgCl2 buffer to-increase the efficiency of hybridization to 20-mer oligos on the arrays. These labeled fragments are hybridized to HU6800 arrays (Affymetrix, Santa Clara, Calif.) as described previously (Lockhart, D. J., et al., (1996) Nat. Biotechnol. 14, 1675-1680; Alon, U. et al., (1999) Proc. Natl. Acad. Sci. U.S.A. 96, 6745-6750). This array represents approximately 7000 human genes. Briefly, samples are hybridized for 16 h at 45° C. with constant rotation at 60 rpm. The arrays are washed and stained using an Affymetrix fluidics station. The stain included streptavidin-phycoerythrin (10 μg/ml; Molecular Probes, Eugene, Oreg.) and biotinylated goat anti-streptavidin (3 μg/ml; Vector Laboratories, Burlingame, Calif.).
Imaging and Data Analysis. Affymetrix arrays are scanned with a HP argon-ion laser confocal microscope, with a 488 nm […] and detection at 570 nm. Affymetrix fold changes are calculated using GeneChip 3.3 software (Affymetrix). Incyte Pharmaceutical Inc. uses a laser confocal microscope to determine the fluorescence intensities from Incyte cDNA arrays. The fluorescent images (Cy3 and Cy5) from the Incyte cDNA arrays are normalized to total fluorescence from each channel for all genes for labeling efficiency differences and considered the normalized data is used for calculation of the gene expression ratios.

O=C(CCCCC[C@@H]1NC(=O)[C@H]2CCCCN2C(=O)[C@H](Cc2ccccc2)NC(=O)[C@H](Cc2ccccc2)NC1=O)C1CO1 (stereo partly drawn) [TPX, Trapoxin A] (cyclo(FF[dPip][Aoe(9ξ)]))
Fold change, D85429 Hsp 40 (12 h): 4.8^8 fold and 5.3^8 fold
Fold change, J03909 γ-IFN-inducible, IP-30 (12 h): 4.7^7 fold and 5.2^8 fold
Fold change, L03840 Fibroblast growth factor receptor (12 h): 3.2* fold and 4.9^1 fold
Fold change, L32976 Mixed lineage kinase-3 (12 h): −2.4* fold
Fold change, M12174 RhoB (12 h): 5.2^8 fold and 4.5^8 fold
Fold change, M16938 Homeobox C8 (12 h): NC (<2 fold change in expression level (NC))
Fold change, M55153 Transglutaminase 2 (12 h): NC (<2 fold change in expression level (NC))
Fold change, M59828 Hsp 70 (12 h): NC (<2 fold change in expression level (NC))
Fold change, M76125 Tyrosine kinase receptor (TKR) axl (12 h): NC (<2 fold change in expression level (NC))
Fold change, M80244 Human E16 (12 h): NC (<2 fold change in expression level (NC))
Fold change, M86406 Actinin (12 h): 2.1 fold and 2.4 fold
Fold change, NM006603 Stromal antigen 2 (12 h): NC (<2 fold change in expression level (NC))
Fold change, U03057 Actin-bundling protein (12 h): 2.4^7 fold and 2.0^7 fold
Fold change, U09578 MAKAP kinase (3 pk) (12 h): NC (<2 fold change in expression level (NC))
Fold change, U09579 p21waf1 (1st line) (12 h): 10.5^8 fold and 7.0^8 fold
Fold change, U09579 p21waf1 (2nd line) (12 h): 3.4 fold and 3.6 fold
Fold change, U09937 Upa receptor (UpaR) (1st line) (12 h): NC (<2 fold change in expression level (NC))
Fold change, U14750 Connective tissue growth factor (12 h): 5.6 fold and 3.5 fold
Fold change, U15782 Cleavage stimulation factor 3 (12 h): NC (<2 fold change in expression level (NC))
Fold change, U25804 Caspase-4 (12 h): NC (<2 fold change in expression level (NC))
Fold change, U30827 Srp40 (12 h): NC (<2 fold change in expression level (NC))
Fold change, U31875 Hep27 (12 h): 11.2^8 fold and 12.3^8 fold
Fold change, U32519 GAP SH3 binding protein (12 h): 8.3^8 fold and 4.3^3 fold
Fold change, U48795 Cathelicidin antimicrobial peptide (12 h): 8.5 fold
Fold change, U56833 VBP-1 (12 h): NC (<2 fold change in expression level (NC))
Fold change, U77413 O-linked-N-acetylglucosamine transferase (12 h): NC (<2 fold change in expression level (NC))
Fold change, U84214 Defender against cell death 1 (12 h): 2.5 fold and 2.0 fold
Fold change, X03473 Histone H1 (0) [Chromatin remodeling] (12 h): 12.0^8 fold and 11.9^8 fold
Fold change, X03473 Histone H1 (0) [Differentiation] (12 h): 12.0^8 fold and 11.9^8 fold
Fold change, X04429 Plasminogen activator inhibitor 1 (12 h): NC (<2 fold change in expression level (NC))
Fold change, X16396 NAD-dependent methylene teterahydrofolate dehydrogenase-methylenyltetrahydrofolate cyclohydrolase (12 h): NC (<2 fold change in expression level (NC))
Fold change, X37547 Inhibitor of apoptisis homolog C (12 h): NC (<2 fold change in expression level (NC))
Fold change, X53586 Integrin α-6 (12 h): NC (<2 fold change in expression level (NC))
Fold change, X55740 5′-nucleotidase (12 h): NC (<2 fold change in expression level (NC))
Fold change, X66029 TKR axl (12 h): NC (<2 fold change in expression level (NC))
Fold change, X78687 G9 sialidase (12 h): 4.3^8 fold and 4.5^8 fold
Fold change, A1581499 Apoptosis inhibitor 2 (18 h): NC (<2 fold change in expression level (NC))
Fold change, AB011146 KIAA0574, similar to an RNA binding protein (18 h): NC (<2 fold change in expression level (NC))
Fold change, AF012086 RAN-binding protein 2-like (18 h): NC (<2 fold change in expression level (NC))
Fold change, AF052578 RAN [Small GTP-ases] (18 h): 2.5 fold and 3.3 fold
Fold change, AF109161 p35srj [Stress] (18 h): 3.4 fold and 3.3 fold
Fold change, AF109161 p35srj [Transformation and TKRs] (18 h): 3.4 fold and 3.3 fold
Fold change, AL047358 Insulin-induced gene 1 (18 h): 2.0 fold and 2.9 fold
Fold change, AL047358 Spermidine/spermine N1-acetyltransferase (18 h): 2.3 fold and 3.4 fold
Fold change, D31764 Eph1B-like tyrosine kinase receptor (18 h): NC (<2 fold change in expression level (NC))
Fold change, D50525 TI-227H (18 h): NC (<2 fold change in expression level (NC))
Fold change, D85429 Hsp 40 (18 h): 17.1^8 fold and 15.6^8 fold
Fold change, J03909 γ-IFN-inducible, IP-30 (18 h): 17.1^8 fold and 15.6^8 fold
Fold change, L03840 Fibroblast growth factor receptor (18 h): 3.7 fold and 4.4 fold
Fold change, M12174 RhoB (18 h): 6.2^8 fold and 6.1^8 fold
Fold change, M55153 Transglutaminase 2 (18 h): 2.1 fold and 2.6 fold
Fold change, M58286 TNF Receptor (18 h): NC (<2 fold change in expression level (NC))
Fold change, M59828 Hsp 70 (18 h): NC (<2 fold change in expression level (NC))
Fold change, M80899 AHNAK nucleoprotein/desmoykin (18 h): NC (<2 fold change in expression level (NC))
Fold change, M86406 Actinin (18 h): NC (<2 fold change in expression level (NC))
Fold change, U03057 Actin-bundling protein (18 h): NC (<2 fold change in expression level (NC))
Fold change, U09579 p21waf1 (1st line) (18 h): 3.8* fold and 4.0* fold
Fold change, U09579 p21waf1 (2nd line) (18 h): 2.7 fold and 3.1 fold
Fold change, U14750 Connective tissue growth factor (18 h): 3.6 fold and 4.5 fold
Fold change, U19261 Epstein-Barr-induced LMP1 (18 h): NC (<2 fold change in expression level (NC))
Fold change, U28749 High mobility group phosphoprotein I-C (HMGI-C) (1st line) (18 h): NC (<2 fold change in expression level (NC))
Fold change, U30827 Srp40 (18 h): NC (<2 fold change in expression level (NC))
Fold change, U31875 Hep27 (18 h): 7.1^8 fold and 8.3^8 fold
Fold change, U32519 GAP SH3 binding protein (18 h): 4.6^8 fold and 4.2^8 fold
Fold change, U48795 Cathelicidin antimicrobial peptide (18 h): NC (<2 fold change in expression level (NC))
Fold change, U68019 hMAD3 (18 h): NC (<2 fold change in expression level (NC))
Fold change, U79285 Clone 23828 (18 h): NC (<2 fold change in expression level (NC))
Fold change, U84214 Defender against cell death 1 (18 h): NC (<2 fold change in expression level (NC))
Fold change, X03473 Histone H1 (0) [Chromatin remodeling] (18 h): 3.4* fold and 3.6* fold
Fold change, X03473 Histone H1 (0) [Differentiation] (18 h): 3.4* fold and 3.6* fold
Fold change, X37546 Inhibitor of apoptisis homolog B (18 h): NC (<2 fold change in expression level (NC))
Fold change, X78687 G9 sialidase (18 h): 3.3^8 fold and 2.6^8 fold
